Experiments:
Y641N EZH2 = Y641N EZH2 (Homo sapiens, UniProt Q15910, Y641N); assay: Assay for Y641N EZH2 (as the EZH2 assay, H3K27Me2 oligonucleosomes as substrate); assay type: biochemical; settings: Y641N EZH2 mutant, reconstituted H3K27Me2 oligonucleosomes as substrate
Experimental: (§1) EZH2 Assay: Assays were carried out by mixing rPRC2 together with biotinylated oligonucleosome substrates in the presence of the radio-labeled enzyme co-factor, S-adenosyl-L-methionine (^3H SAM) (Perkin Elmer) and monitoring the enzymatically mediated transfer of tritiated methyl groups from ^3H SAM to histone lysine residues. The amount of resulting tritiated methyl histone product was measured by first capturing the biotinylated oligonucleosomes in streptavidin (SAV) coated FlashPlates (Perkin Elmer), followed by a wash step to remove unreacted ^3H SAM, and then counting on a TopCount NXT 384 well plate scintillation counter (Perkin Elmer). The final assay conditions for EZH2 were as follows: 50 mM Tris Buffer pH 8.5, 1 mM DTT, 69 μM Brij-35 detergent, 5.0 mM MgCl2, 0.1 mg/mL BSA, 0.2 μM ^3H SAM, 0.2 μM biotinylated oligonucleosomes, 3.6 μM H3K27me3 peptide and 2 nM EZH2.
(§2) Compound IC50 measurements were obtained as follows: Compounds were first dissolved in 100% DMSO as 10 mM stock solutions. Ten point dose response curves were generated by dispensing varying amounts of the 10 mM compound solution in 10 wells of the 384 well plate (Echo; Labcyte), pure DMSO was then used to backfill the wells to insure all wells have the same amount of DMSO. A 12.5 μL volume of the HMT enzyme, H3K27me3 peptide and oligonucleosome substrate in assay buffer was added to each well of the assay plate using a Multidrop Combi (ThermoFisher). Compounds were pre-incubated with the enzyme for 20 min, followed by initiation of the methyltransferase reaction by addition of 12.5 μL of ^3H SAM in assay buffer (final volume=25 μL). The final concentrations of compounds ranged from a top default concentration of 80 μM down to 0.16 μM in ten 2-fold dilution steps. Reactions were carried out for 60 minutes and quenched with 20 μL per well of 1.96 mM SAH, 50 mM Tris pH 8.5, 200 mM EDTA. Stopped reactions were transferred to SAV coated Flashplates (Perkin Elmer), incubated for 120 min, washed with a plate washer, and then read on the TopCount NXT (1.0 min/well) to measure the amount of methyl histone product formed during the reaction. The amount of methyl histone product was compared with the amount of product formed in the 0% and 100% inhibition control wells allowing the calculation of % Inhibition in the presence of the individual compounds at various concentrations. IC50's were computed using a 4 parameter fit non-linear curve fitting software package (XLFIT, part of the database package, ActivityBase (IDBS)) where the four parameters were IC50, Hill slope, pre-transitional baseline (0% INH), and post-transitional baseline (100% INH); with the latter two parameters being fixed to zero and 100%, respectively, by default.
Assay for Y641N EZH2 was performed as above using reconstituted H3K27Me2 oligonucleosomes as substrate.

EZH2 = EZH2 (Homo sapiens, UniProt Q15910); assay: EZH2 Assay (3H SAM methyl transfer, rPRC2, FlashPlate); assay type: biochemical; settings: rPRC2, biotinylated oligonucleosomes, 0.2 μM 3H SAM, 2 nM EZH2
Experimental: as §1, §2

Chain of Y641N EZH2 (Q15910 whole entry Y641N): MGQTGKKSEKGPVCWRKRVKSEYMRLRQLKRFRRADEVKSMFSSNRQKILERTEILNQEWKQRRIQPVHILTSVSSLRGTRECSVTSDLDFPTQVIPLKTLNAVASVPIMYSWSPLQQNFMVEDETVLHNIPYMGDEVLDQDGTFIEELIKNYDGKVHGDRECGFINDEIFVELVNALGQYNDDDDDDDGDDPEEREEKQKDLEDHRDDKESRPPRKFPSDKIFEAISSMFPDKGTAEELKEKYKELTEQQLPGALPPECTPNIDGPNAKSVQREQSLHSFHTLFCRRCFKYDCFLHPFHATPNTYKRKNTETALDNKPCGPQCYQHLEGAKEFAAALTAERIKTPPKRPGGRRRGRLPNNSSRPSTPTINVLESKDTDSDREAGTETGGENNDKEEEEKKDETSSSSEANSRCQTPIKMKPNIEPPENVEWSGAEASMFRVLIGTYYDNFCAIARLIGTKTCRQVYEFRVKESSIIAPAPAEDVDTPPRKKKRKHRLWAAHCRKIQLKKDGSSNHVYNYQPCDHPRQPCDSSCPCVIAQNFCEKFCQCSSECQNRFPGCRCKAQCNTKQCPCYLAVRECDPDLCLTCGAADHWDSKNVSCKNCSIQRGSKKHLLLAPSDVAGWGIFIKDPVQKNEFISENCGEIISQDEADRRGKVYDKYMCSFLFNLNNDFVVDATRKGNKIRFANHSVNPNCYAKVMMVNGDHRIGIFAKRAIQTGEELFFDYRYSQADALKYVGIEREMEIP
Chain of Y641N EZH2 (O75530 whole entry partner): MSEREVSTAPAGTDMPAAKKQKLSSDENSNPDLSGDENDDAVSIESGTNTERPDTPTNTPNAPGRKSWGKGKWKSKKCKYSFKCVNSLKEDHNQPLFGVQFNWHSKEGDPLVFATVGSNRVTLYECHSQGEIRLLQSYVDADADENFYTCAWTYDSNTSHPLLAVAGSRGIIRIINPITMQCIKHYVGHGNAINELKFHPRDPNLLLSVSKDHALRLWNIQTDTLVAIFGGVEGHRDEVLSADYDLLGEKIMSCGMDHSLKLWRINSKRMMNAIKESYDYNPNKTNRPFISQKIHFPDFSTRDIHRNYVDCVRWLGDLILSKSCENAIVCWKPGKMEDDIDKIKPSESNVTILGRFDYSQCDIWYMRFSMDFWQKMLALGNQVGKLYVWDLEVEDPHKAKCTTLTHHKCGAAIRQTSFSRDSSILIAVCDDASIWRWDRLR
Chain of Y641N EZH2 (Q15022 whole entry partner): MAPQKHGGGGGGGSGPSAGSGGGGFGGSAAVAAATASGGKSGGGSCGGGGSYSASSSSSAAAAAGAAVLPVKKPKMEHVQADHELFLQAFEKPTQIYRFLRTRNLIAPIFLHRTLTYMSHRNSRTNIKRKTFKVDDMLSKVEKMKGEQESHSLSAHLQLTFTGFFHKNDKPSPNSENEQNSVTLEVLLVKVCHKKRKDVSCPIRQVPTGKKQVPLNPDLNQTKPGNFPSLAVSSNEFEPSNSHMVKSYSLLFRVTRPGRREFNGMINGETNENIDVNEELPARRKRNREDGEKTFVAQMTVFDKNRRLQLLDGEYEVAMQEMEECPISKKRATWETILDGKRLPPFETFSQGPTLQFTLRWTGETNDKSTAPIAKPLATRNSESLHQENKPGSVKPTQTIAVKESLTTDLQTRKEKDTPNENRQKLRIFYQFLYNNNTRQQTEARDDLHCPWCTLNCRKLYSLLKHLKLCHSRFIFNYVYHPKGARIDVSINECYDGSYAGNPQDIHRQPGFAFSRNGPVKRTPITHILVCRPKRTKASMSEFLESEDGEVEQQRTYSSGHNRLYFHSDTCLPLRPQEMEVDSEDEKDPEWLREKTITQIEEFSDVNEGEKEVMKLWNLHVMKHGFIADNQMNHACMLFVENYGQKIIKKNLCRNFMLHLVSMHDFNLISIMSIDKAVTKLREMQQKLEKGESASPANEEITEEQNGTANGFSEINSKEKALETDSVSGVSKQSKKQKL
Chain of EZH2 (Q15910 whole entry): as the sequence (Q15910 whole entry Y641N) above, with N641Y counted along it
Chain of EZH2 (O75530 whole entry partner): as the sequence (O75530 whole entry partner) above
Chain of EZH2 (Q15022 whole entry partner): as the sequence (Q15022 whole entry partner) above

SMILES	IC50 (Y641N EZH2)	IC50 (EZH2)	EZH2 IC50 (EZH2)
COc1cc(C)[nH]c(=O)c1CNC(=O)c1c(C)c(C(C)N(C)C(C)=O)n2ncccc12 (racemic) [Compound 104, (±)-N-((4-methoxy-6-methyl-2-oxo-1,2-dihydropyridin-3-yl)methyl)-6-methyl-7-(1-(N-methylacetamido)ethyl)pyrrolo[1,2-b]pyridazine-5-carboxamide]	100 to 1000 nM	< 100 nM	–
COc1cc(C)[nH]c(=O)c1CNC(=O)c1c(C)c(C(C)c2cccn(C)c2=O)n2ncccc12 (racemic) [Compound 111, (±)-N-((4-methoxy-6-methyl-2-oxo-1,2-dihydropyridin-3-yl)methyl)-6-methyl-7-(1-(1-methyl-2-oxo-1,2-dihydropyridin-3-yl)ethyl)pyrrolo[1,2-b]pyridazine-5-carboxamide]	1000 to 10000 nM	–	*(0.25 μM)
CCS(=O)(=O)N1CCC(C(C)c2c(C)c(C(=O)NCc3c(OC)cc(C)[nH]c3=O)n3ccncc23)CC1 (racemic) [Compound 117, (±)-8-(1-(1-(ethylsulfonyl)piperidin-4-yl)ethyl)-N-((4-methoxy-6-methyl-2-oxo-1,2-dihydropyridin-3-yl)methyl)-7-methylpyrrolo[1,2-a]pyrazine-6-carboxamide]	< 100 nM	< 100 nM	–
CCS(=O)(=O)N1CCC(C(C)c2c(C)c(C(=O)NCc3c(OC)cc(C)[nH]c3=O)c3cnccn23)CC1 (racemic) [Compound 119, (±)-6-(1-(1-(ethylsulfonyl)piperidin-4-yl)ethyl)-N-((4-methoxy-6-methyl-2-oxo-1,2-dihydropyridin-3-yl)methyl)-7-methylpyrrolo[1,2-a]pyrazine-8-carboxamide]	< 100 nM	< 100 nM	–
Cc1cc(C)c(CNC(=O)c2c(C)c(C(C)C3CCN(C)CC3)n3ncccc23)c(=O)[nH]1 (racemic) [Compound 124, (±)-N-((4,6-dimethyl-2-oxo-1,2-dihydropyridin-3-yl)methyl)-6-methyl-7-(1-(1-methylpiperidin-4-yl)ethyl)pyrrolo[1,2-b]pyridazine-5-carboxamide]	100 to 1000 nM	< 100 nM	–
COc1cc(C)[nH]c(=O)c1CNC(=O)c1c(C)c(-c2ccnn2C)n2ncccc12 [Compound 109, N-((4-methoxy-6-methyl-2-oxo-1,2-dihydropyridin-3-yl)methyl)-6-methyl-7-(1-methyl-1H-pyrazol-5-yl)pyrrolo[1,2-b]pyridazine-5-carboxamide]	100 to 1000 nM	100 to 1000 nM	–
CCN(C)C(C)c1c(C)c(C(=O)NCc2c(OC)cc(C)[nH]c2=O)c2cccnn12 (centres unmarked) [Compound 131, 7-(1-(ethyl(methyl)amino)ethyl)-N-((4-methoxy-6-methyl-2-oxo-1,2-dihydropyridin-3-yl)methyl)-6-methylpyrrolo[1,2-b]pyridazine-5-carboxamide]	–	100 to 1000 nM	–

Continued, values first:

IC50 (Y641N EZH2)	IC50 (EZH2)	EZH2 IC50 (EZH2)	SMILES
> 10000 nM	1000 to 10000 nM	–	COc1cc(C)[nH]c(=O)c1CNC(=O)c1c(C)c(C(C)=O)n2ncccc12 [Compound 100, 7-acetyl-N-((4-methoxy-6-methyl-2-oxo-1,2-dihydropyridin-3-yl)methyl)-6-methylpyrrolo[1,2-b]pyridazine-5-carboxamide]
–	100 to 1000 nM	–	Cc1cc(C)c(CNC(=O)c2c(C)c(C(=O)N3CCOCC3)n3ncccc23)c(=O)[nH]1 [Compound 125, N-((4,6-dimethyl-2-oxo-1,2-dihydropyridin-3-yl)methyl)-6-methyl-7-(morpholine-4-carbonyl)pyrrolo[1,2-b]pyridazine-5-carboxamide]
–	1000 to 10000 nM	–	Cc1cc(C)c(CNC(=O)c2c(C)c(C(=O)N3CCN(S(C)(=O)=O)CC3)n3ncccc23)c(=O)[nH]1 [Compound 126, N-((4,6-dimethyl-2-oxo-1,2-dihydropyridin-3-yl)methyl)-6-methyl-7-(4-(methylsulfonyl)piperazine-1-carbonyl)pyrrolo[1,2-b]pyridazine-5-carboxamide]

Reference: US9745305B2, “Modulators of methyl modifying enzymes, compositions and uses thereof” (Constellation Pharmaceuticals, Inc., priority 2013, dated 2017)
